The target in one assay is Insulin receptor (Homo sapiens, UniProt P06213). The assay can be described thus: Selectivity interaction (KinomeScan (DiscoverX)) EUB0000695a INSR. As to conditions: at 100 nM.
In assay [1] the target is Ribosomal protein S6 kinase alpha-6 (Homo sapiens, UniProt Q9UK32). Kind of assay: Selectivity interaction (KinomeScan (DiscoverX)) EUB0000695a RPS6KA6. As to conditions: at 100 nM.
The target in assay [2] is T1, Tyrosine-protein kinase receptor TYRO3 (Homo sapiens) (UniProt Q06418).
T1 sequence (whole entry): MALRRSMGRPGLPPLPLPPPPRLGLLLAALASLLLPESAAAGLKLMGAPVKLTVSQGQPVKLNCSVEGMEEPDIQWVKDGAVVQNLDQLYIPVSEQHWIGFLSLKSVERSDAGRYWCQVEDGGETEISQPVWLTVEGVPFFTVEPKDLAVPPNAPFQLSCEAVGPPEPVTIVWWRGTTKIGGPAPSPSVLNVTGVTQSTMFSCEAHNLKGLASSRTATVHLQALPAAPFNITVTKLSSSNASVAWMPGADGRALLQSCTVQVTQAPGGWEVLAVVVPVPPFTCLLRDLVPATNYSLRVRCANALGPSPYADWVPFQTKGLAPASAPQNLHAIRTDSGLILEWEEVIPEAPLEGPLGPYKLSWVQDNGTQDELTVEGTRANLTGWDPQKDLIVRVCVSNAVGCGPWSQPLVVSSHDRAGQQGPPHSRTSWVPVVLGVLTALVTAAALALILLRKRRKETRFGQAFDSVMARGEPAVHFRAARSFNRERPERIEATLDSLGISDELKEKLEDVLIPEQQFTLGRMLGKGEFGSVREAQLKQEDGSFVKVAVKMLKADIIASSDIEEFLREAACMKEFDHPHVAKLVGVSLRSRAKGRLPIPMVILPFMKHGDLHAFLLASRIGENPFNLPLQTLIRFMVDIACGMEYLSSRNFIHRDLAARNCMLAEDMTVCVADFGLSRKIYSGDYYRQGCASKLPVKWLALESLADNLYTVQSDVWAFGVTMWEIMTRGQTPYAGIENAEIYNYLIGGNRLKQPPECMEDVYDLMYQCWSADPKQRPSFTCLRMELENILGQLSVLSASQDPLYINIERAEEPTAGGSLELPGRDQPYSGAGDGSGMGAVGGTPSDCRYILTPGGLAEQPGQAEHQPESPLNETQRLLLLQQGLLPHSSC
Kind of assay: Selectivity interaction (KinomeScan (DiscoverX)) EUB0000666a TYRO3. As to conditions: at 10 µM.

The target of assay [3] is Phosphatidylinositol 3-kinase catalytic subunit type 3 (Homo sapiens, UniProt Q8NEB9). The assay can be described thus: Selectivity interaction (ActivX KiNativ screen (kinase selectivity in THP-1 cell lysates)) EUB0000639a PIK3C3. As to conditions: lysate, at 0.04 µM. The format is subcellular.
In assay [4] the target is T2, Serine/threonine-protein kinase LATS1 (Homo sapiens) (UniProt O95835).
T2 sequence (whole entry): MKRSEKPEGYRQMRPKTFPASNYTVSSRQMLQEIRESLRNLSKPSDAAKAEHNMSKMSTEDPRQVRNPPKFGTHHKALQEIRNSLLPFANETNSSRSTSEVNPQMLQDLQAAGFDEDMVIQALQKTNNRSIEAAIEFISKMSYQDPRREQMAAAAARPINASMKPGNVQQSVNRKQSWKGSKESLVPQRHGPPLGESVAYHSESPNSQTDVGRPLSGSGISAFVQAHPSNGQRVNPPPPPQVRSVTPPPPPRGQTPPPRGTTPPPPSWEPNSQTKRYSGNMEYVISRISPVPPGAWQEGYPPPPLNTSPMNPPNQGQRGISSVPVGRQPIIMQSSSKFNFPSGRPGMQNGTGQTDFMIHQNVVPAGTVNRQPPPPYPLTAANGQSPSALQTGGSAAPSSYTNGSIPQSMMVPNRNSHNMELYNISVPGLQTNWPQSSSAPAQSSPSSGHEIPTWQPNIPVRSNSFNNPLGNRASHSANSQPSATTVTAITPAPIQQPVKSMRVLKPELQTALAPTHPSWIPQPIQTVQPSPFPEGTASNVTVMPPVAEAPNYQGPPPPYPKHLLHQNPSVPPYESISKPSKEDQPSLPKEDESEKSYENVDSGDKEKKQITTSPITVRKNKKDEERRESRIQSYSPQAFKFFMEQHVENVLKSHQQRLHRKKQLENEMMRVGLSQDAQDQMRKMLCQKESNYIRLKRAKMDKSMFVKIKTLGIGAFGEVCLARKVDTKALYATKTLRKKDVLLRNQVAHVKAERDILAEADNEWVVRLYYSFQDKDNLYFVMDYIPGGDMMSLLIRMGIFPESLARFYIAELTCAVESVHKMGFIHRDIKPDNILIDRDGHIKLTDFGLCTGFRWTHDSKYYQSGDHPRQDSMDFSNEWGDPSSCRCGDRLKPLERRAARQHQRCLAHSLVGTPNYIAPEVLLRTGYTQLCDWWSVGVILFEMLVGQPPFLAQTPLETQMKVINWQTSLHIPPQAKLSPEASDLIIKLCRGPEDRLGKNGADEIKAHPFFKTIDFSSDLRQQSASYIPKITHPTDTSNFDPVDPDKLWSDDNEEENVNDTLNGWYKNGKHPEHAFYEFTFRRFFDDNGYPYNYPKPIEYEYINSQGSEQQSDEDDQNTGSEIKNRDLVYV
The assay can be described thus: Selectivity interaction (Ambit KINOMEscan and KiNATiv profiling in Jurkat cells) EUB0000090b LATS1. The assay is classed as cell-based. The conditions noted are these: at 1 µM.

The target in assay [5] is Proto-oncogene tyrosine-protein kinase Src (Homo sapiens, UniProt P12931). The assay can be described thus: Selectivity interaction (KinomeScan (DiscoverX)) EUB0001049a SRC. As to conditions: at 1 µM.
Assay [6] addresses Activin receptor type-2B (Homo sapiens) (UniProt Q13705). Kind of assay: Selectivity interaction (KinomeScan (DiscoverX)) EUB0000092b ACVR2B. The conditions noted are these: at 10 µM.

Data on 6 compounds can be found in ChEMBL document CHEMBL5465560, “Selectivity Literature for EUbOPEN Chemogenomic Library” (2024).

Chain of Phosphatidylinositol 3-kinase catalytic subunit type 3 (Q8NEB9 whole entry): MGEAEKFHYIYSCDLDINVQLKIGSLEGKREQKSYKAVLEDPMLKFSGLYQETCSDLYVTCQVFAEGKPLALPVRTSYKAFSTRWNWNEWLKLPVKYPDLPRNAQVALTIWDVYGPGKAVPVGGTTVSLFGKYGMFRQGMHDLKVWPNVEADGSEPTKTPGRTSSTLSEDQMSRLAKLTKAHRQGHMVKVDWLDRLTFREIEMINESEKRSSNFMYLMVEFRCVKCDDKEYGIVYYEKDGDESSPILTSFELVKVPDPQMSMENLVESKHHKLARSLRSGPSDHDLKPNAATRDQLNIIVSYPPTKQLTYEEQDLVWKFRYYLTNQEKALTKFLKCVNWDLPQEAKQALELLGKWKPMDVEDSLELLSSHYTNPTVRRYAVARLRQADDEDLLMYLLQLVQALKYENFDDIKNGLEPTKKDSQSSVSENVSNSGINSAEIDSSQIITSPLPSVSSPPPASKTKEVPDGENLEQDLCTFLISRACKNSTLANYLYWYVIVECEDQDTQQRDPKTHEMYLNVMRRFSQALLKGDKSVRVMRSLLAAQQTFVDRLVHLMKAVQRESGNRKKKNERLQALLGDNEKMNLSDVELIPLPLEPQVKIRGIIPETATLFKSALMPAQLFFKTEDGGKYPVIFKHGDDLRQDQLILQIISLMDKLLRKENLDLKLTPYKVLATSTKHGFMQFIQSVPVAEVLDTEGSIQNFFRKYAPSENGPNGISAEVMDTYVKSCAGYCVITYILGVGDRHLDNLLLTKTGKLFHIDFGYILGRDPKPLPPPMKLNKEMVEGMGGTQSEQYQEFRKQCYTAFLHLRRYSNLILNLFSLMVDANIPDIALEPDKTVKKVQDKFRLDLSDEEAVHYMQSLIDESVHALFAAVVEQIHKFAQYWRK
Chain of Proto-oncogene tyrosine-protein kinase Src (P12931 2-536 limits assumed): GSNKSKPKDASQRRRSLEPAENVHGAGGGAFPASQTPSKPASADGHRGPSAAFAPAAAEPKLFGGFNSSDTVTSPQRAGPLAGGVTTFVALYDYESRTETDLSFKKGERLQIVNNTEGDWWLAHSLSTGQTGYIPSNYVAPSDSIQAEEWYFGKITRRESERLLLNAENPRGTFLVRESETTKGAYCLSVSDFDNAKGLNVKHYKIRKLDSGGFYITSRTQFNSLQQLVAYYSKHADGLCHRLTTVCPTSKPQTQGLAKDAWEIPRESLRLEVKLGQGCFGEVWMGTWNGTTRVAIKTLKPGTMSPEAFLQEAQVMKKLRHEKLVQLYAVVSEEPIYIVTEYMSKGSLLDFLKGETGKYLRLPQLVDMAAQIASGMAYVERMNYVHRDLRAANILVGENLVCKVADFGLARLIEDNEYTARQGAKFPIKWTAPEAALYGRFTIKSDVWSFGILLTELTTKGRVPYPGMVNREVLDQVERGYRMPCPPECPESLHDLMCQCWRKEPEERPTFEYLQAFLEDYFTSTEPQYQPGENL
Chain of Ribosomal protein S6 kinase alpha-6 (Q9UK32 whole entry): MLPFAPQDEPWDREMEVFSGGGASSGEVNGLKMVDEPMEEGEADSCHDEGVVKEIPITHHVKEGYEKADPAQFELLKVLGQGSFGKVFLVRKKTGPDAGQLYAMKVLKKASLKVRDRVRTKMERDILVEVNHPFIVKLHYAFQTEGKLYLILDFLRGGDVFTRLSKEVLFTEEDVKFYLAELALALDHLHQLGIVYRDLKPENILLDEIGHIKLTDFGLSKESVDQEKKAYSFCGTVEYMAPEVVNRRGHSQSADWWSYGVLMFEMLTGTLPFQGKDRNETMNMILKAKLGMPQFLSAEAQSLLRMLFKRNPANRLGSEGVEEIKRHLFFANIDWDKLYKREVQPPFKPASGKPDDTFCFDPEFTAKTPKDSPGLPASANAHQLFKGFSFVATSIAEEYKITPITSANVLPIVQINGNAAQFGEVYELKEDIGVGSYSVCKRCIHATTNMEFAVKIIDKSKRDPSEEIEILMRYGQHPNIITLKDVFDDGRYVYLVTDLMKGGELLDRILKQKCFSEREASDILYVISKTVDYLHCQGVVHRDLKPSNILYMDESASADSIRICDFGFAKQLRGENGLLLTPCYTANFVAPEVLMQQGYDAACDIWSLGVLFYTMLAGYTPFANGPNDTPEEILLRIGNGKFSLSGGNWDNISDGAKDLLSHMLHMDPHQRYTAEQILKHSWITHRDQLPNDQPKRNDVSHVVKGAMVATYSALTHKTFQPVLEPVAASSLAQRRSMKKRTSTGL
Chain of Activin receptor type-2B (Homo sapiens) (Q13705 whole entry): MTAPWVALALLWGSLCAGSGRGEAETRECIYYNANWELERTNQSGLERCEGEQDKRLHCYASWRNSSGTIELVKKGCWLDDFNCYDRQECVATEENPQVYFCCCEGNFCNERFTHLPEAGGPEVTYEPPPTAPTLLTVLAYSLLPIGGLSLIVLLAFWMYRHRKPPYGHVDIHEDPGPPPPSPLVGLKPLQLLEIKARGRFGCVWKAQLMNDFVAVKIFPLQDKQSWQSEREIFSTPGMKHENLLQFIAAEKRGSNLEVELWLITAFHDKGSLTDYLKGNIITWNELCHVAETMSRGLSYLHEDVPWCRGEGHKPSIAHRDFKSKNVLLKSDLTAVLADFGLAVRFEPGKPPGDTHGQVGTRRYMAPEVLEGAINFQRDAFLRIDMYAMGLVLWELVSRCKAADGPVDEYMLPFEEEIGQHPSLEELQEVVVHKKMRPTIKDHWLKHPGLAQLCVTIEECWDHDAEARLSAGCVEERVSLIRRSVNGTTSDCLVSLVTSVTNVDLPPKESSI
Chain of Insulin receptor (P06213 28-758 limits assumed): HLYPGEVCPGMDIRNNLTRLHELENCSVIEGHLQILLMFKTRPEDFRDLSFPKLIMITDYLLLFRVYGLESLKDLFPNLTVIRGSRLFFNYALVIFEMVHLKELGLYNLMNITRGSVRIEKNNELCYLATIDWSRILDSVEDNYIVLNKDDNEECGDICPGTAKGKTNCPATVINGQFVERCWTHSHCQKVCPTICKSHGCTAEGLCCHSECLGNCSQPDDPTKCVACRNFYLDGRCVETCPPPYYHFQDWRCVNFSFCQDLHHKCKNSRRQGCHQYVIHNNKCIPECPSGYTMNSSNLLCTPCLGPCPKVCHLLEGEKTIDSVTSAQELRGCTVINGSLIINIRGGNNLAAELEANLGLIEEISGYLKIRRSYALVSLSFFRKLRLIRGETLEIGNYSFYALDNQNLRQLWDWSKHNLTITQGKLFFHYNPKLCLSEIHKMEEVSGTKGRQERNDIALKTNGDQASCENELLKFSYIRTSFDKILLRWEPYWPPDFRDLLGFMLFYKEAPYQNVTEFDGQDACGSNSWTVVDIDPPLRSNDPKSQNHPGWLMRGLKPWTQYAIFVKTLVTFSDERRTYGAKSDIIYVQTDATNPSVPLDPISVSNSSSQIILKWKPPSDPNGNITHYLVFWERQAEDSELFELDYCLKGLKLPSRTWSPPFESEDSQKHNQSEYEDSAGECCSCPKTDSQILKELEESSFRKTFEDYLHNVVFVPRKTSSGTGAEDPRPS
Chain of Insulin receptor (P06213 763-1382 limits assumed): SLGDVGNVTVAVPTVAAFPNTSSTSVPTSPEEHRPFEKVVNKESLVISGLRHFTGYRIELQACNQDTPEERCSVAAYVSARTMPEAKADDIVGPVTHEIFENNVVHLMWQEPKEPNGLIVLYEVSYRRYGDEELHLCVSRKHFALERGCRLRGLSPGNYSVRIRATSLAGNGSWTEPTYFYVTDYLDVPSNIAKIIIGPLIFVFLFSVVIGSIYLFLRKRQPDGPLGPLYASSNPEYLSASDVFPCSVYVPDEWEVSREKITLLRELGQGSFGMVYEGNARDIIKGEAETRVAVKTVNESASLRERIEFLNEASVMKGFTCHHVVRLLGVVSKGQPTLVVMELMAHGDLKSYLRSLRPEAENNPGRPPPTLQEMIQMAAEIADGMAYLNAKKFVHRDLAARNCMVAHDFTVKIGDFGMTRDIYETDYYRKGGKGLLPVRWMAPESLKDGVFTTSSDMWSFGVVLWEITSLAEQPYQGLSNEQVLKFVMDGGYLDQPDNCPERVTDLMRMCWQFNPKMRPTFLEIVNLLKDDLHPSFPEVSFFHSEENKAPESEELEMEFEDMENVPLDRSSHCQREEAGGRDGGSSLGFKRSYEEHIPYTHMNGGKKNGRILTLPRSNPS

`Cc1cc(F)c(C(=O)Nc2cccc(-c3nncn3C(C)C)n2)cc1-n1cnc(C2CC2)c1`: the % of control at Insulin receptor came to 100%; in assay [1], 22%. In turn, `O=C(NOC[C@H](O)CO)c1ccc(F)c(F)c1Nc1ccc(I)cc1F` returned a % of control in assay [2] of 80%. With `CC[C@@H]1[C@H](F)C(=O)N[C@@H]1COc1nccc2cc(C(N)=O)c(OC)cc12` [ZIMLOVISERTIB], the % of inhibition in assay [3] was -7%. Turning to `CN(C)C/C=C/C(=O)Nc1ccc(C(=O)N2CCCC(Nc3ncc(Cl)c(-c4c[nH]c5ccccc45)n3)C2)cc1` (configuration not stated), in assay [4], the % of control was 84%. Compound `COc1cc(Nc2nc(C)cc(-c3cnn4nc(OC)ccc34)n2)cc(C(F)(F)F)c1` gave a % of control in assay [5] of 100%. In turn, `CCC(=O)N1CCN(c2ccc(-n3c(=O)ccc4cnc5ccc(-c6cnc7ccccc7c6)cc5c43)cc2C(F)(F)F)CC1` had a % of control in assay [6] of 42%.
